Results as given in patent publication US6737383B1, “Herbicidal oxadiazolidines” (priority 1999, dated 2004).

Assays:
pigweed = test: Test B pre/postemergence pigweed; assay type: in vivo, Amaranthus retroflexus
Outline: (§1)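 Herbicidal effect was estimated by eye on a ten-point control scale after plants spent twelve to sixteen days in a greenhouse following soil or foliar treatment. Foliar sprays targeted plants at one to four leaves; all doses were formulated in a non-phytotoxic solvent with surfactant.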

wheat = test: Test B pre/postemergence wheat; assay type: in vivo, Triticum aestivum
Outline: as §1

duck salad = test: Test B flood test duck salad; assay type: in vivo, Heteranthera limosa
Outline: (§2)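 Plants were grown to the 2-leaf stage before treatment with test chemical, then held in a greenhouse for twelve to sixteen days. Injury was visually rated against untreated controls on a 0–10 scale, where 0 is no effect and 10 is complete control.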

purple nutsedge = test: Test B pre/postemergence purple nutsedge; assay type: in vivo, Cyperus rotundus
Outline: as §1

surinam grass = test: Test B pre/postemergence surinam grass; assay type: in vivo, Brachiaria decumbens
Outline: as §1

smallflower flatsedge = test: Test B flood test smallflower flatsedge; assay type: in vivo, Cyperus difformis; settings: for S. Flatsedge plant response rating: scale of 0 to 10 where 0 is no effect and 10 is complete control
Outline: as §2

rice = test: Test B flood test rice; assay type: in vivo, Oryza sativa
Outline: as §2

velvetleaf = test: Test B pre/postemergence velvetleaf; assay type: in vivo, Abutilon theophrasti
Outline: as §1

soybean = test: Test B pre/postemergence soybean; assay type: in vivo, Glycine max
Outline: as §1

sugar beet = test: Test B pre/postemergence sugar beet; assay type: in vivo, Beta vulgaris
Outline: as §1

cocklebur = test: Test B pre/postemergence cocklebur; assay type: in vivo, Xanthium strumarium
Outline: as §1

wild oat = test: Test B pre/postemergence wild oat; assay type: in vivo, Avena fatua
Outline: as §1

rape = test: Test B pre/postemergence rape; assay type: in vivo, Brassica napus
Outline: as §1

corn = test: Test B pre/postemergence corn; assay type: in vivo, Zea mays
Outline: as §1

giant foxtail = test: Test B pre/postemergence giant foxtail; assay type: in vivo, Setaria faberii
Outline: as §1

bedstraw = test: Test B pre/postemergence bedstraw; assay type: in vivo, Galium aparine
Outline: as §1

[1] = Postemergence, Rate 125 g/ha, scale of 0 to 10 where 0 is no effect and 10 is complete control
[2] = Preemergence, Rate 31 g/ha, visual rating, scale 0 to 10 (0 no effect, 10 complete control)
[3] = Preemergence, Rate 62 g/ha, scale 0 to 10 (0 no effect, 10 complete control)
[4] = Preemergence, Rate 125 g/ha, 0 is no effect, 10 is complete control
[5] = Preemergence, Rate 250 g/ha, scale 0 to 10, 0 is no effect, 10 is complete control
[6] = Rate 31 g/ha, Postemergence, scale 0 to 10
[7] = Rate 62 g/ha, Postemergence, scale of 0 to 10 where 0 is no effect and 10 is complete control
[8] = Rate 250 g/ha, Postemergence, scale 0 to 10, 0 is no effect, 10 is complete control
[9] = Postemergence (flood test species), Rate 125 g/ha, scale of 0 to 10 where 0 is no effect and 10 is complete control
[10] = Rate 31 g/ha, Postemergence section (flood test species), scale 0 to 10
[11] = Rate 62 g/ha, Postemergence section, flood test species, scale of 0 to 10 where 0 is no effect and 10 is complete control
[12] = Rate 250 g/ha, Postemergence (flood test), scale 0 to 10, 0 is no effect, 10 is complete control

Cc1noc(C)c1-n1c(=O)on(C(=O)N(c2ccc(F)cc2)C(C)C)c1=O [Compound 155]
Redroot pigweed plant response rating (pigweed; [1]): 0 | Redroot pigweed plant response rating (pigweed; [2]): 0 | Redroot pigweed plant response rating (pigweed; [3]): 0 | Redroot pigweed plant response rating (0 to 10 scale) (pigweed; [4]): 0 | Redroot pigweed plant response rating (pigweed; [5]): 3 | Redroot pigweed plant response rating (pigweed; [6]): 0 | Redroot pigweed plant response rating (pigweed; [7]): 0 | Plant response rating, Redroot pigweed (pigweed; [8]): 0 | Wheat plant response rating (wheat; [2]): 0 | Wheat plant response rating (wheat; [3]): 0 | Wheat plant response rating (0 to 10 scale) (wheat; [4]): 0 | Wheat plant response rating (wheat; [5]): 0 | Wheat plant response rating (wheat; [7]): 0 | Plant response rating, Wheat (wheat; [8]): 0 | Ducksalad plant response rating (duck salad; [9]): 0 | Ducksalad plant response rating (duck salad; [10]): 0 | Ducksalad plant response rating (duck salad; [11]): 0 | Plant response rating, Ducksalad (duck salad; [12]): 0 | Nutsedge plant response rating (purple nutsedge; [1]): 0 | Nutsedge plant response rating (purple nutsedge; [2]): 0 | Nutsedge plant response rating (purple nutsedge; [3]): 0 | Nutsedge plant response rating (0 to 10 scale) (purple nutsedge; [4]): 0 | Nutsedge plant response rating (purple nutsedge; [5]): 0 | Nutsedge plant response rating (purple nutsedge; [6]): 0 | Nutsedge plant response rating (purple nutsedge; [7]): 0 | Plant response rating, Nutsedge (purple nutsedge; [8]): 0 | B. signalgrass plant response rating (surinam grass; [1]): 0 | B. signalgrass plant response rating (surinam grass; [2]): 0 | B. signalgrass plant response rating (surinam grass; [3]): 0 | B. signalgrass plant response rating (0 to 10 scale) (surinam grass; [4]): 0 | B. signalgrass plant response rating (surinam grass; [5]): 0 | B. signalgrass plant response rating (surinam grass; [6]): 0 | B. signalgrass plant response rating (surinam grass; [7]): 0 | Plant response rating, B. signalgrass (surinam grass; [8]): 0 | S. Flatsedge plant response rating (smallflower flatsedge; Postemergence (flood test species), Rate 125 g/ha): 0 | S. Flatsedge plant response rating (smallflower flatsedge; Rate 62 g/ha, Postemergence section, flood test species): 0 | Plant response rating, S. Flatsedge (smallflower flatsedge; [12]): 0 | Rice plant response rating (rice; [9]): 0 | Rice plant response rating (rice; [10]): 0 | Rice plant response rating (rice; [11]): 0 | Plant response rating, Rice (rice; [12]): 0 | Velvetleaf plant response rating (velvetleaf; [2]): 0 | Velvetleaf plant response rating (velvetleaf; [3]): 0 | Velvetleaf plant response rating (0 to 10 scale) (velvetleaf; [4]): 0 | Velvetleaf plant response rating (velvetleaf; [5]): 0 | Velvetleaf plant response rating (velvetleaf; [7]): 0 | Plant response rating, Velvetleaf (velvetleaf; [8]): 0 | Soybean plant response rating (soybean; [1]): 1 | Soybean plant response rating (soybean; [2]): 0 | Soybean plant response rating (soybean; [3]): 0 | Soybean plant response rating (0 to 10 scale) (soybean; [4]): 0 | Soybean plant response rating (soybean; [5]): 0 | Soybean plant response rating (soybean; [7]): 1 | Plant response rating, Soybean (soybean; [8]): 1 | Sugarbeets plant response rating (sugar beet; [1]): 0 | Sugarbeets plant response rating (sugar beet; [2]): 0 | Sugarbeets plant response rating (sugar beet; [3]): 0 | Sugarbeets plant response rating (0 to 10 scale) (sugar beet; [4]): 0 | Sugarbeets plant response rating (sugar beet; [5]): 0 | Sugarbeets plant response rating (sugar beet; [7]): 0 | Plant response rating, Sugarbeets (sugar beet; [8]): 0 | Cocklebur plant response rating (cocklebur; [1]): 0 | Cocklebur plant response rating (cocklebur; [2]): 0 | Cocklebur plant response rating (cocklebur; [3]): 0 | Cocklebur plant response rating (0 to 10 scale) (cocklebur; [4]): 0 | Cocklebur plant response rating (cocklebur; [5]): 0 | Cocklebur plant response rating (cocklebur; [6]): 0 | Cocklebur plant response rating (cocklebur; [7]): 0 | Plant response rating, Cocklebur (cocklebur; [8]): 0 | Wild oats plant response rating (wild oat; [2]): 0 | Wild oats plant response rating (wild oat; [3]): 0 | Wild oats plant response rating (0 to 10 scale) (wild oat; [4]): 0 | Wild oats plant response rating (wild oat; [5]): 0 | Wild oats plant response rating (wild oat; [7]): 0 | Plant response rating, Wild oats (wild oat; [8]): 0 | Rape plant response rating (rape; [1]): 0 | Rape plant response rating (rape; [2]): 0 | Rape plant response rating (rape; [3]): 0 | Rape plant response rating (0 to 10 scale) (rape; [4]): 0 | Rape plant response rating (rape; [5]): 0 | Rape plant response rating (rape; [6]): 0 | Rape plant response rating (rape; [7]): 0 | Plant response rating, Rape (rape; [8]): 0 | Corn plant response rating (corn; [1]): 0 | Corn plant response rating (corn; [2]): 0 | Corn plant response rating (corn; [3]): 0 | Corn plant response rating (0 to 10 scale) (corn; [4]): 0 | Corn plant response rating (corn; [5]): 0 | Corn plant response rating (corn; [6]): 0 | Corn plant response rating (corn; [7]): 0 | Plant response rating, Corn (corn; [8]): 2 | Giant foxtail plant response rating (giant foxtail; [1]): 3 | Giant foxtail plant response rating (giant foxtail; [2]): 0 | Giant foxtail plant response rating (giant foxtail; [3]): 0 | Giant foxtail plant response rating (0 to 10 scale) (giant foxtail; [4]): 0 | Giant foxtail plant response rating (giant foxtail; [5]): 2 | Giant foxtail plant response rating (giant foxtail; [6]): 0 | Giant foxtail plant response rating (giant foxtail; [7]): 1 | Plant response rating, Giant foxtail (giant foxtail; [8]): 6 | Bedstraw plant response rating (bedstraw; [1]): 0 | Bedstraw plant response rating (bedstraw; [2]): 0 | Bedstraw plant response rating (bedstraw; [3]): 0 | Bedstraw plant response rating (0 to 10 scale) (bedstraw; [4]): 0 | Bedstraw plant response rating (bedstraw; [5]): 0 | Bedstraw plant response rating (bedstraw; [6]): 0 | Bedstraw plant response rating (bedstraw; [7]): 0 | Plant response rating, Bedstraw (bedstraw; [8]): 0
